Data taken from PubChem BioAssay AID248 (DTP/NCI, 2004).
Toxic doses and inconclusive results are not listed. Rule as the data show it: active = T/C of 150% or more; inactive = T/C below 125%.

Test system: L1210 leukemia ip in BDF1 mice, survival T/C
Assay: NCI In Vivo Anticancer Drug Screen. Data for tumor model L1210 Leukemia (intraperitoneal) in B6D2F1 (BDF1) mice
Settings: endpoint: mean survival time, higher = longer survival
How it was run: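 Read-out is survival time, reported as the treated-group measurement over the vehicle-control measurement.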

[1] = dose: 100.0 mg/kg/injection, schedule: Q04DX002 (ip), vehicle: other
[2] = dose: 200.0 mg/kg/injection, schedule: Q04DX002 (ip), vehicle: other
[3] = dose: 400.0 mg/kg/injection, schedule: Q04DX002 (ip), vehicle: other
[4] = dose: 100.0 mg/kg/injection, schedule: Q01DX009 (ip), vehicle: Klucel (hydroxypropylcellulose) (HPC)
[5] = dose: 100.0 mg/kg/injection, schedule: Q04DX003 (ip), vehicle: Klucel (hydroxypropylcellulose) (HPC)
[6] = dose: 200.0 mg/kg/injection, schedule: Q01DX009 (ip), vehicle: Klucel (hydroxypropylcellulose) (HPC)
[7] = dose: 200.0 mg/kg/injection, schedule: Q04DX003 (ip), vehicle: Klucel (hydroxypropylcellulose) (HPC)
[8] = dose: 400.0 mg/kg/injection, schedule: Q01DX009 (ip), vehicle: Klucel (hydroxypropylcellulose) (HPC)
[9] = dose: 400.0 mg/kg/injection, schedule: Q04DX003 (ip), vehicle: Klucel (hydroxypropylcellulose) (HPC)
[10] = dose: 100.0 mg/kg/injection, schedule: Q01DX001 (ip), vehicle: saline
[11] = dose: 200.0 mg/kg/injection, schedule: Q01DX001 (ip), vehicle: saline

Measured: T/C

COC(=O)NS(=O)(=O)C1=Cc2cccc3cccc1c23
inactive: dose: 100.0 mg/kg/injection, schedule: Q04DX002 (ip), vehicle: Klucel (hydroxypropylcellulose) (HPC) 103 % of control | dose: 200.0 mg/kg/injection, schedule: Q04DX002 (ip), vehicle: Klucel (hydroxypropylcellulose) (HPC) 100 % of control | dose: 400.0 mg/kg/injection, schedule: Q04DX002 (ip), vehicle: Klucel (hydroxypropylcellulose) (HPC) 113 % of control

O=C1NC23CC=CCC12CCCCCC3 (configuration not stated)
inactive: [1] 93 % of control | [2] 90 % of control | [3] 86 % of control

c1ccc2c(c1)-c1ccccc1[Si]21c2ccccc2-c2ccccc21
inactive: dose: 100.0 mg/kg/injection, schedule: Q01DX009 (ip), vehicle: saline with Tween-80 97 % of control | dose: 200.0 mg/kg/injection, schedule: Q01DX009 (ip), vehicle: saline with Tween-80 92 % of control | dose: 400.0 mg/kg/injection, schedule: Q01DX009 (ip), vehicle: saline with Tween-80 91 % of control

Nc1ncnc2c1ncn2C1OC(CO)C(O)C1OCc1ccccc1 (configuration not stated)
inactive: dose: 100.0 mg/kg/injection, schedule: Q01DX005 (ip), vehicle: saline 90 % of control | dose: 200.0 mg/kg/injection, schedule: Q01DX005 (ip), vehicle: saline 103 % of control

Clc1ccc2c(c1)ncn1nnnc21
inactive: dose: 50.0 mg/kg/injection, schedule: Q04DX003 (ip), vehicle: saline 95 % of control | dose: 100.0 mg/kg/injection, schedule: Q04DX003 (ip), vehicle: saline 104 % of control | dose: 200.0 mg/kg/injection, schedule: Q04DX003 (ip), vehicle: saline 93 % of control

Cc1ccc(S(=O)(=O)OCCCCOS(=O)(=O)c2ccc(C)cc2)cc1
inactive: [4] 99 % of control | [5] 91 % of control | [6] 89 % of control | [7] 100 % of control | [8] 100 % of control | [9] 105 % of control

CSc1ccc(NC(=O)Nc2cccc(O)c2)cc1
inactive: [4] 101 % of control | [5] 101 % of control | [6] 103 % of control | [7] 106 % of control | [8] 101 % of control | [9] 98 % of control

CCCCCCOC(=O)CCCc1ccc(N(CCCl)CCCl)cc1
inactive: dose: 100.0 mg/kg/injection, schedule: Q04DX002 (ip), vehicle: saline 114 % of control | dose: 200.0 mg/kg/injection, schedule: Q04DX002 (ip), vehicle: saline 111 % of control | dose: 400.0 mg/kg/injection, schedule: Q04DX002 (ip), vehicle: saline 124 % of control

O=S(=O)(CCCBr)NC1CCCCC1
inactive: [4] 96 % of control | [6] 91 % of control | [8] 93 % of control

N#CC(SC(=N)N)c1ccccc1 (configuration not stated)
inactive: [10] 103 % of control | [11] 96 % of control

[CH3][Sn]1([CH3])[c]2ccccc2Oc2cccc[c]21
inactive: dose: 100.0 mg/kg/injection, schedule: Q01DX001 (ip), vehicle: other 92 % of control | dose: 200.0 mg/kg/injection, schedule: Q01DX001 (ip), vehicle: other 97 % of control | dose: 400.0 mg/kg/injection, schedule: Q01DX001 (ip), vehicle: other 87 % of control

Nc1c(Br)cc(Br)c2[nH]c(=O)c3ccccc3c12
inactive: dose: 100.0 mg/kg/injection, schedule: Q01DX001 (ip), vehicle: carboxymethylcellulose (CMC) 104 % of control | dose: 200.0 mg/kg/injection, schedule: Q01DX001 (ip), vehicle: carboxymethylcellulose (CMC) 96 % of control | dose: 400.0 mg/kg/injection, schedule: Q01DX001 (ip), vehicle: carboxymethylcellulose (CMC) 98 % of control

CCCCN=C=NCCCN(C)C
inactive: dose: 62.5 mg/kg/injection, schedule: Q04DX003 (ip), vehicle: Klucel (hydroxypropylcellulose) (HPC) 103 % of control | dose: 125.0 mg/kg/injection, schedule: Q04DX003 (ip), vehicle: Klucel (hydroxypropylcellulose) (HPC) 96 % of control | dose: 250.0 mg/kg/injection, schedule: Q04DX003 (ip), vehicle: Klucel (hydroxypropylcellulose) (HPC) 92 % of control

N=c1nc(N)nc2c3ccccc3nnn12
inactive: dose: 75.0 mg/kg/injection, schedule: Q01DX001 (ip), vehicle: other 105 % of control | dose: 150.0 mg/kg/injection, schedule: Q01DX001 (ip), vehicle: other 106 % of control

CN(C)C(=O)O/N=C(\c1ccccc1)C(F)(F)F
inactive: dose: 0.5 mg/kg/injection, schedule: Q01DX001 (ip), vehicle: saline 103 % of control | dose: 1.0 mg/kg/injection, schedule: Q01DX001 (ip), vehicle: saline 102 % of control | dose: 2.0 mg/kg/injection, schedule: Q01DX001 (ip), vehicle: saline 97 % of control

CN(CCC#N)C(=O)Nc1ccc(Cl)c(Cl)c1
inactive: [1] 109 % of control | [2] 102 % of control | [3] 102 % of control

O=C(NCCc1ccccc1)c1ccc2ccccc2n1
inactive: dose: 3.12 mg/kg/injection, schedule: Q01DX009 (ip), vehicle: DMSO 93 % of control | dose: 6.25 mg/kg/injection, schedule: Q01DX009 (ip), vehicle: DMSO 93 % of control | dose: 12.5 mg/kg/injection, schedule: Q01DX009 (ip), vehicle: DMSO 91 % of control | dose: 25.0 mg/kg/injection, schedule: Q01DX009 (ip), vehicle: DMSO 90 % of control | dose: 100.0 mg/kg/injection, schedule: Q04DX003 (ip), vehicle: DMSO 95 % of control | dose: 200.0 mg/kg/injection, schedule: Q04DX003 (ip), vehicle: DMSO 97 % of control | dose: 400.0 mg/kg/injection, schedule: Q04DX003 (ip), vehicle: DMSO 95 % of control

O/N=C1/CC2CCC(C2)C1(O)c1ccccc1 (configuration not stated)
inactive: [10] 103 % of control | [11] 113 % of control | dose: 400.0 mg/kg/injection, schedule: Q01DX001 (ip), vehicle: saline 103 % of control

Clc1cc(Cl)c2c(c1)Cc1cc(Cl)cc(N=Cc3ccc4c(c3)OCO4)c1-2
inactive: [4] 97 % of control | [5] 97 % of control | [6] 99 % of control | [7] 97 % of control | [9] 104 % of control

CN1CCN(Cc2cc(Cl)c3cccnc3c2O)CC1
inactive: dose: 75.0 mg/kg/injection, schedule: Q01DX001 (ip), vehicle: saline 100 % of control | dose: 150.0 mg/kg/injection, schedule: Q01DX001 (ip), vehicle: saline 106 % of control

CC1C(=O)CC2C3(C)CCC2(C(C)C(=O)O)C(=O)C13 (configuration not stated)
inactive: dose: 100.0 mg/kg/injection, schedule: Q01DX001 (ip), vehicle: Klucel (hydroxypropylcellulose) (HPC) 100 % of control | [4] 104 % of control | [5] 109 % of control | dose: 200.0 mg/kg/injection, schedule: Q01DX001 (ip), vehicle: Klucel (hydroxypropylcellulose) (HPC) 107 % of control | [6] 100 % of control | [7] 106 % of control | dose: 400.0 mg/kg/injection, schedule: Q01DX001 (ip), vehicle: Klucel (hydroxypropylcellulose) (HPC) 107 % of control | [8] 98 % of control | [9] 104 % of control

CN(C)C(=S)[S][Sn]([c]1ccccc1)([c]1ccccc1)[c]1ccccc1
inactive: dose: 1.25 mg/kg/injection, schedule: Q01DX009 (ip), vehicle: saline with Tween-80 88 % of control | dose: 1.25 mg/kg/injection, schedule: Q04DX003 (ip), vehicle: saline with Tween-80 99 % of control | dose: 2.5 mg/kg/injection, schedule: Q01DX009 (ip), vehicle: saline with Tween-80 93 % of control | dose: 2.5 mg/kg/injection, schedule: Q04DX003 (ip), vehicle: saline with Tween-80 99 % of control | dose: 5.0 mg/kg/injection, schedule: Q01DX001 (ip), vehicle: steriod suspending solution 95 % of control | dose: 5.0 mg/kg/injection, schedule: Q01DX009 (ip), vehicle: Klucel (hydroxypropylcellulose) (HPC) 101 % of control | dose: 5.0 mg/kg/injection, schedule: Q01DX009 (ip), vehicle: saline with Tween-80 106 % of control | dose: 5.0 mg/kg/injection, schedule: Q04DX003 (ip), vehicle: Klucel (hydroxypropylcellulose) (HPC) 92 % of control | dose: 5.0 mg/kg/injection, schedule: Q04DX003 (ip), vehicle: saline with Tween-80 98 % of control | dose: 10.0 mg/kg/injection, schedule: Q01DX001 (ip), vehicle: steriod suspending solution 101 % of control | dose: 10.0 mg/kg/injection, schedule: Q01DX009 (ip), vehicle: Klucel (hydroxypropylcellulose) (HPC) 92 % of control | dose: 10.0 mg/kg/injection, schedule: Q04DX003 (ip), vehicle: Klucel (hydroxypropylcellulose) (HPC) 97 % of control | dose: 20.0 mg/kg/injection, schedule: Q01DX009 (ip), vehicle: Klucel (hydroxypropylcellulose) (HPC) 103 % of control | dose: 20.0 mg/kg/injection, schedule: Q04DX003 (ip), vehicle: Klucel (hydroxypropylcellulose) (HPC) 91 % of control | dose: 40.0 mg/kg/injection, schedule: Q01DX001 (ip), vehicle: steriod suspending solution 92 % of control
